Measured values published in patent US7531646B2, “β-D-ribosidase activity indicators with a chromogenic substrate” (priority 2001, dated 2009).

Assays:
Type in all cases: cell-based
Streptococcus agalactiae = experiment: Substrate hydrolysis on Columbia agar; details: Streptococcus agalactiae NCTC 8181; 300 mg/l; 18 hours
E. coli = experiment: Substrate hydrolysis on Columbia agar; details: 300 mg/l, 18 hours
Vibrio harveyi = experiment: Substrate hydrolysis on Columbia agar; details: Vibrio harveyi NCTC 11346; 300 mg/l; 18 hours
[1] = test system: Haemolytic streptococcus B; experiment: Substrate hydrolysis on Columbia agar; details: 300 mg/l, 18 hours
[2] = test system: Staphylococcus epidermidis; experiment: Substrate hydrolysis on Columbia agar; details: 300 mg/l, 18 hours
Salmonella alachia = experiment: Substrate hydrolysis on Columbia agar; details: Salmonella alachia SAX 60; 300 mg/l; 18 hours
Text: (§1) This was achieved using a densitometer.
(§2) The same method was used as in Example 1.

Vibrio mimicus = experiment: Substrate hydrolysis on Columbia agar; details: Vibrio mimicus NCTC 11435; 300 mg/l; 18 hours
Text: as §1, §2

Shigella sonnei = experiment: Substrate hydrolysis on Columbia agar; details: 300 mg/l, 18 hours
Text: as §1, §2

Shigella boydii = experiment: Substrate hydrolysis on Columbia agar; details: 300 mg/l, 18 hours
Text: as §1, §2

Salmonella motevideo = experiment: Substrate hydrolysis on Columbia agar; details: Salmonella motevideo SAX 55; 300 mg/l; 18 hours
Text: as §1, §2

Shigella flexneri = experiment: Substrate hydrolysis on Columbia agar; details: 300 mg/l, 18 hours
Text: as §1, §2

[3] = test system: Haemolytic streptococcus C; experiment: Substrate hydrolysis on Columbia agar; details: 300 mg/l, 18 hours
E. aerogenes = experiment: Substrate hydrolysis on Columbia agar; details: 300 mg/l, 18 hours
Aeromonas caviae = experiment: Substrate hydrolysis on Columbia agar; set-up: key to the marks not given beside the values; details: Aeromonas caviae NCTC 10852; 300 mg/l; 18 hours
Vibrio cincinnatiensis = experiment: Substrate hydrolysis on Columbia agar; details: Vibrio cincinnatiensis NCTC 12012; 300 mg/l; 18 hours
Serratia marcescens = experiment: Substrate hydrolysis on Columbia agar; details: Serratia marcescens NCTC 10211; 300 mg/l; 18 hours
Providencia stuartii = experiment: Substrate hydrolysis on Columbia agar; details: 300 mg/l, 18 hours
Gram negative bacteria = experiment: Substrate hydrolysis on Columbia agar, summary of screen
Shigella dysenteriae = experiment: Substrate hydrolysis on Columbia agar; details: 300 mg/l, 18 hours
[4] = test system: Providencia alcalifaciens; experiment: Substrate hydrolysis on Columbia agar; details: 300 mg/l, 18 hours
Listeria ivanovii = experiment: Substrate hydrolysis on Columbia agar; details: Listeria ivanovii PHLS wild; 300 mg/l; 18 hours
Salmonella orthmarchen = experiment: Substrate hydrolysis on Columbia agar; details: Salmonella orthmarchen SAX 59; 300 mg/l; 18 hours
Vibrio alcaligenes = experiment: Substrate hydrolysis on Columbia agar; details: Vibrio alcaligenes NCTC 12160; 300 mg/l; 18 hours
Vibrio parahaemolyticus = experiment: Substrate hydrolysis on Columbia agar; details: 300 mg/l, 18 hours
Hafnia alvei = experiment: Substrate hydrolysis on Columbia agar; details: 300 mg/l, 18 hours
Salmonella hadar = experiment: Substrate hydrolysis on Columbia agar; details: Salmonella hadar SAX 57; 300 mg/l; 18 hours
Staphylococcus aureus = experiment: Substrate hydrolysis on Columbia agar; details: 300 mg/l, 18 hours
Streptococcus pneumoniae = experiment: Substrate hydrolysis on Columbia agar; details: Streptococcus pneumoniae NCTC 7465; 300 mg/l; 18 hours
Enterococcus casseflavus = experiment: Substrate hydrolysis on Columbia agar; details: Enterococcus casseflavus NCTC 12361; 300 mg/l; 18 hours
Listeria innocua = experiment: Substrate hydrolysis on Columbia agar; details: Listeria innocua PHLS wild; 300 mg/l; 18 hours

## 3′,4′-dihydroxyflavone-4′-β-D-glucopyranoside sodium salt [DHF-glucoside]
Streptococcus agalactiae
  Hydrolysis by Gram positive organisms: −
E. coli; E. coli ECO 2
  Hydrolysis by Gram negative bacteria: −
E. coli; E. coli ECO 3
  Hydrolysis by Gram negative bacteria: −
E. coli; E. coli ECO 4
  Hydrolysis by Gram negative bacteria: −
E. coli; E. coli ECO 5
  Hydrolysis by Gram negative bacteria: −
E. coli; E. coli ECO 6
  Hydrolysis by Gram negative bacteria: −
E. coli; E. coli ECO 7
  Hydrolysis by Gram negative bacteria: −
E. coli; E. coli ECO 8
  Hydrolysis by Gram negative bacteria: −
E. coli; E. coli ECO 9
  Hydrolysis by Gram negative bacteria: −
E. coli; E. coli ECO 10
  Hydrolysis by Gram negative bacteria: −
E. coli; E. coli ECO 11
  Hydrolysis by Gram negative bacteria: −
E. coli; E. coli ECO 12
  Hydrolysis by Gram negative bacteria: −
E. coli; E. coli NCTC 10418
  Hydrolysis by Gram negative bacteria: −
Vibrio harveyi
  Hydrolysis by Gram negative bacteria: +
[1]; Haemolytic streptococcus B 1
  Hydrolysis by Gram positive organisms: −
[1]; Haemolytic streptococcus B 2
  Hydrolysis by Gram positive organisms: −
[1]; Haemolytic streptococcus B 3
  Hydrolysis by Gram positive organisms: −
[2]; Staphylococcus epidermidis RB60
  Hydrolysis by Gram positive organisms: −
[2]; Staphylococcus epidermidis RB62
  Hydrolysis by Gram positive organisms: −
[2]; Staphylococcus epidermidis RB63
  Hydrolysis by Gram positive organisms: −
[2]; Staphylococcus epidermidis RB64
  Hydrolysis by Gram positive organisms: ++
[2]; Staphylococcus epidermidis RB65
  Hydrolysis by Gram positive organisms: −
Salmonella alachia
  Hydrolysis by Gram negative bacteria: −
Vibrio mimicus
  Hydrolysis by Gram negative bacteria: −
Shigella sonnei; Shigella sonnei NCTC 8219
  Hydrolysis by Gram negative bacteria: −
Shigella sonnei; Shigella sonnei NCTC 8574
  Hydrolysis by Gram negative bacteria: −
Shigella sonnei; Shigella sonnei NCTC 8586
  Hydrolysis by Gram negative bacteria: −
Shigella sonnei; Shigella sonnei NCTC 9774
  Hydrolysis by Gram negative bacteria: −
Shigella sonnei; Shigella sonnei NCTC 10352
  Hydrolysis by Gram negative bacteria: −
Shigella boydii; Shigella boydii NCTC 9327
  Hydrolysis by Gram negative bacteria: −
Shigella boydii; Shigella boydii NCTC 9732
  Hydrolysis by Gram negative bacteria: −
Shigella boydii; Shigella boydii NCTC 9850
  Hydrolysis by Gram negative bacteria: −
Salmonella motevideo
  Hydrolysis by Gram negative bacteria: −
Shigella flexneri; Shigella flexneri NCTC 8192
  Hydrolysis by Gram negative bacteria: −
Shigella flexneri; Shigella flexneri NCTC 9723
  Hydrolysis by Gram negative bacteria: −
Shigella flexneri; Shigella flexneri NCTC 9780
  Hydrolysis by Gram negative bacteria: −
[3]; Haemolytic streptococcus C 1
  Hydrolysis by Gram positive organisms: −
[3]; Haemolytic streptococcus C 67736
  Hydrolysis by Gram positive organisms: −
[3]; Haemolytic streptococcus C 68350
  Hydrolysis by Gram positive organisms: −
E. aerogenes; E. aerogenes EAE 1
  Hydrolysis by Gram negative bacteria: +
E. aerogenes; E. aerogenes NCIMB 10102
  Hydrolysis by Gram negative bacteria: +
Aeromonas caviae
  Hydrolysis by Gram negative bacteria: ++
Vibrio cincinnatiensis
  Hydrolysis by Gram negative bacteria: +
Serratia marcescens
  Hydrolysis by Gram negative bacteria: +
Providencia stuartii; Providencia stuartii PST 1
  Hydrolysis by Gram negative bacteria: +
Providencia stuartii; Providencia stuartii PST 2
  Hydrolysis by Gram negative bacteria: +
Gram negative bacteria; of 120 Gram negative bacteria tested
  strains known to be producers of β-glucosidase which did not appear to hydrolyse the substrate: 11 strains
Gram negative bacteria; of 120 Gram negative bacteria tested, 300 mg/l, 18 hours
  Gram negative bacteria tested that hydrolysed the substrate: 20%
Gram negative bacteria; positive Gram negative strains, agar
  colouration and diffusion of positive strains: brown/black colouration which showed no diffusion in agar
Shigella dysenteriae; Shigella dysenteriae (type 2) NCTC 9952
  Hydrolysis by Gram negative bacteria: −
Shigella dysenteriae; Shigella dysenteriae (type 3) NCTC 9720
  Hydrolysis by Gram negative bacteria: −
Shigella dysenteriae; Shigella dysenteriae (type 4) NCTC 9759
  Hydrolysis by Gram negative bacteria: −
[4]; Providencia alcalifaciens PAL 1
  Hydrolysis by Gram negative bacteria: +
[4]; Providencia alcalifaciens PAL 2
  Hydrolysis by Gram negative bacteria: +
Listeria ivanovii
  Hydrolysis by Gram positive organisms: ++
Salmonella orthmarchen
  Hydrolysis by Gram negative bacteria: −
Vibrio alcaligenes
  Hydrolysis by Gram negative bacteria: −
Vibrio parahaemolyticus; Vibrio parahaemolyticus NCTC 10441
  Hydrolysis by Gram negative bacteria: −
Vibrio parahaemolyticus; Vibrio parahaemolyticus NCTC 10884
  Hydrolysis by Gram negative bacteria: −
Vibrio parahaemolyticus; Vibrio parahaemolyticus NCTC 10903
  Hydrolysis by Gram negative bacteria: −
Vibrio parahaemolyticus; Vibrio parahaemolyticus NCTC 11344
  Hydrolysis by Gram negative bacteria: −
Vibrio parahaemolyticus; Vibrio parahaemolyticus NCTC 12205
  Hydrolysis by Gram negative bacteria: −
Hafnia alvei; Hafnia alvei HAL 2
  Hydrolysis by Gram negative bacteria: −
Hafnia alvei; Hafnia alvei NCTC 8105
  Hydrolysis by Gram negative bacteria: −
Salmonella hadar
  Hydrolysis by Gram negative bacteria: −
Staphylococcus aureus; Staphylococcus aureus 1
  Hydrolysis by Gram positive organisms: −
Staphylococcus aureus; Staphylococcus aureus 2
  Hydrolysis by Gram positive organisms: −
Staphylococcus aureus; Staphylococcus aureus 3
  Hydrolysis by Gram positive organisms: −
Staphylococcus aureus; Staphylococcus aureus 4
  Hydrolysis by Gram positive organisms: −
Staphylococcus aureus; Staphylococcus aureus 5
  Hydrolysis by Gram positive organisms: −
Streptococcus pneumoniae
  Hydrolysis by Gram positive organisms: −
Enterococcus casseflavus
  Hydrolysis by Gram positive organisms: ++
Listeria innocua
  Hydrolysis by Gram positive organisms: ++
